PubChem BioAssay (NCI)
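Assay format: 96-well plates, 48-hour exposure. The concentration for full growth arrest is given as TGI.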

tested on: NCI-H226 lung; test: NCI tumour cell line growth inhibition, 48 h

Row | Structure (SMILES) | TGI [µM]
1 | O=C(O)C(O)C(O)C(O)C(O)c1nc2ccccc2s1 (configuration not stated) | 66.4

tested on: NCI-H460 lung; test: NCI tumour cell line growth inhibition, 48 h

Row | Structure (SMILES) | TGI [µM]
2 | CCCC(=O)OCC1OC(n2ccc(N)nc2=O)C(OC(=O)CCC)C1OC(=O)CCC (configuration not stated) | > 100
3 | O=S(=O)(O)CCCc1cccc2ccccc12 | > 100
4 | CC(=O)OC1/C=C(\C)C(OC(C)=O)C/C=C(/C)CCC2C(/C=C/C1=O)C2(C)C (configuration not stated) | > 100
5 | NC(CCCCCP(=O)(c1ccccc1)C1C=CC=CC1)C(=O)O (configuration not stated) | > 100
6 | COc1ccc(/C=C2\CCNC2=O)cc1 | > 100
7 | CC(C)Cc1ccc(C(C)C(=O)N2CCN(/C=C/c3ccccc3)CC2)cc1 (configuration not stated) | 32.9
8 | CO/N=C(\C)c1ccc(Nc2nc3ccccc3c3occc23)cc1 | 34.1
9 | O=c1cc[nH]c(=O)[nH]1 | 883
10 | O=P(O)(O)CCP(=O)(O)O | > 100
11 | O=c1sc2ccccc2n1CC1CS1 (configuration not stated) | > 100
12 | Cc1n(Cc2ccccc2)c2c([n+]1C)C(=O)c1ccccc1C2=O | 0.5
13 | O=C1c2cccc3c2C(=O)c2c(cccc21)OCCOCCOCCOCCO3 | > 100
14 | C=CCc1c(O)c2c(c3oc(=O)cc(C)c13)CC(C)O2 (configuration not stated) | > 100
15 | CN(C)c1ccc(/C=c2/c3ccccc3n3c2c2c([n+]3C)CCCC2)cc1 | 0.758
16 | CCOc1ncn(-c2ccc(NC(=S)Nc3ncccn3)cc2)n1 | > 100
17 | CC1(C)OC(C(=O)Nc2cc3c4ccccc4ccc3c3ccccc23)C(C(=O)N2CCCCC2)O1 (configuration not stated) | 27.7
18 | CCN(CC)CCNc1ccc2nnn3c4ccc(OCCN(CC)CC)cc4c(=O)c1c23 | > 100
19 | COc1cc2c(cc1OC)C(CC1=C(c3ccccc3)CN3CCc4cc(OC)c(OC)cc4C3C1)NCC2 (configuration not stated) | 37.9
20 | Nc1c(C(=O)O)nnc2ccc(Cl)cc12 | > 100
21 | O=C(O)C(O)C(O)C(O)C(O)c1nc2ccccc2s1 (configuration not stated) | 31.6

tested on: NCI-H522 lung; test: NCI tumour cell line growth inhibition, 48 h

Row | Structure (SMILES) | TGI [µM]
22 | CCCC(=O)OCC1OC(n2ccc(N)nc2=O)C(OC(=O)CCC)C1OC(=O)CCC (configuration not stated) | > 100
23 | O=S(=O)(O)CCCc1cccc2ccccc12 | > 100
24 | CC(=O)OC1/C=C(\C)C(OC(C)=O)C/C=C(/C)CCC2C(/C=C/C1=O)C2(C)C (configuration not stated) | > 100
25 | NC(CCCCCP(=O)(c1ccccc1)C1C=CC=CC1)C(=O)O (configuration not stated) | > 100
26 | COc1ccc(/C=C2\CCNC2=O)cc1 | > 100
27 | CC(C)Cc1ccc(C(C)C(=O)N2CCN(/C=C/c3ccccc3)CC2)cc1 (configuration not stated) | 25
28 | CO/N=C(\C)c1ccc(Nc2nc3ccccc3c3occc23)cc1 | 24
29 | O=c1cc[nH]c(=O)[nH]1 | 923
30 | O=P(O)(O)CCP(=O)(O)O | > 100
31 | O=c1sc2ccccc2n1CC1CS1 (configuration not stated) | > 100
32 | Cc1n(Cc2ccccc2)c2c([n+]1C)C(=O)c1ccccc1C2=O | 0.135
33 | O=C1c2cccc3c2C(=O)c2c(cccc21)OCCOCCOCCOCCO3 | > 100
34 | C=CCc1c(O)c2c(c3oc(=O)cc(C)c13)CC(C)O2 (configuration not stated) | > 100
35 | CN(C)c1ccc(/C=c2/c3ccccc3n3c2c2c([n+]3C)CCCC2)cc1 | 0.687
36 | CCOc1ncn(-c2ccc(NC(=S)Nc3ncccn3)cc2)n1 | 38.6
37 | CC1(C)OC(C(=O)Nc2cc3c4ccccc4ccc3c3ccccc23)C(C(=O)N2CCCCC2)O1 (configuration not stated) | > 28.3
38 | CCN(CC)CCNc1ccc2nnn3c4ccc(OCCN(CC)CC)cc4c(=O)c1c23 | > 100
39 | CC(=O)Nc1ccc(N=Nc2c(O)c(S(=O)(=O)O)cc3cc(S(=O)(=O)O)ccc23)cc1 | > 100
40 | Nc1c(C(=O)O)nnc2ccc(Cl)cc12 | > 100
41 | O=C(O)C(O)C(O)C(O)C(O)c1nc2ccccc2s1 (configuration not stated) | 27.1

tested on: NCI/ADR-RES ovarian; test: NCI tumour cell line growth inhibition, 48 h

Row | Structure (SMILES) | TGI [µM]
42 | CCCC(=O)OCC1OC(n2ccc(N)nc2=O)C(OC(=O)CCC)C1OC(=O)CCC (configuration not stated) | > 100
43 | O=S(=O)(O)CCCc1cccc2ccccc12 | > 100
44 | NC(CCCCCP(=O)(c1ccccc1)C1C=CC=CC1)C(=O)O (configuration not stated) | > 100
45 | COc1ccc(/C=C2\CCNC2=O)cc1 | > 100
46 | CC(C)Cc1ccc(C(C)C(=O)N2CCN(/C=C/c3ccccc3)CC2)cc1 (configuration not stated) | 28.2
47 | CO/N=C(\C)c1ccc(Nc2nc3ccccc3c3occc23)cc1 | 32.1
